{"source": "the NIST ThermoML archive (doi:10.1021/je200145r)", "assay": "wn = mass fraction of the nth substance listed", "settings": "101 kPa, Liquid; for viscosity: Capillary tube (Ostwald / Ubbelohde) method", "note": "Numbers after ± are expanded uncertainties."}
{"smiles": "C1COCCO1", "note": "[1,4-dioxane] + CO", "values": [{"measurement": "viscosity", "setting": "298.15 K, w1 = 0.1", "value": "0.55 ± 0.007", "unit": "mPa·s"}, {"measurement": "viscosity", "setting": "298.15 K, w1 = 0.2", "value": "0.554 ± 0.007", "unit": "mPa·s"}, {"measurement": "viscosity", "setting": "298.15 K, w1 = 0.3", "value": "0.565 ± 0.008", "unit": "mPa·s"}, {"measurement": "viscosity", "setting": "298.15 K, w1 = 0.4", "value": "0.587 ± 0.008", "unit": "mPa·s"}, {"measurement": "mass density", "setting": "298.15 K, w1 = 0.1", "value": "811.2 ± 0.8", "unit": "kg/m3"}, {"measurement": "mass density", "setting": "298.15 K, w1 = 0.2", "value": "834.4 ± 0.8", "unit": "kg/m3"}, {"measurement": "mass density", "setting": "298.15 K, w1 = 0.3", "value": "852.5 ± 0.7", "unit": "kg/m3"}, {"measurement": "mass density", "setting": "298.15 K, w1 = 0.4", "value": "875.1 ± 0.7", "unit": "kg/m3"}, {"measurement": "viscosity", "setting": "303.15 K, w1 = 0.1", "value": "0.511 ± 0.007", "unit": "mPa·s"}, {"measurement": "viscosity", "setting": "303.15 K, w1 = 0.2", "value": "0.517 ± 0.007", "unit": "mPa·s"}, {"measurement": "viscosity", "setting": "303.15 K, w1 = 0.3", "value": "0.527 ± 0.007", "unit": "mPa·s"}, {"measurement": "viscosity", "setting": "303.15 K, w1 = 0.4", "value": "0.548 ± 0.007", "unit": "mPa·s"}, {"measurement": "mass density", "setting": "303.15 K, w1 = 0.1", "value": "806.4 ± 0.8", "unit": "kg/m3"}, {"measurement": "mass density", "setting": "303.15 K, w1 = 0.2", "value": "828.8 ± 0.8", "unit": "kg/m3"}, {"measurement": "mass density", "setting": "303.15 K, w1 = 0.3", "value": "847.4 ± 0.7", "unit": "kg/m3"}, {"measurement": "mass density", "setting": "303.15 K, w1 = 0.4", "value": "870.2 ± 0.7", "unit": "kg/m3"}, {"measurement": "viscosity", "setting": "308.15 K, w1 = 0.1", "value": "0.473 ± 0.007", "unit": "mPa·s"}, {"measurement": "viscosity", "setting": "308.15 K, w1 = 0.2", "value": "0.482 ± 0.007", "unit": "mPa·s"}, {"measurement": "viscosity", "setting": "308.15 K, w1 = 0.3", "value": "0.489 ± 0.007", "unit": "mPa·s"}, {"measurement": "viscosity", "setting": "308.15 K, w1 = 0.4", "value": "0.508 ± 0.007", "unit": "mPa·s"}, {"measurement": "mass density", "setting": "308.15 K, w1 = 0.1", "value": "801.7 ± 0.8", "unit": "kg/m3"}, {"measurement": "mass density", "setting": "308.15 K, w1 = 0.2", "value": "823.4 ± 0.8", "unit": "kg/m3"}, {"measurement": "mass density", "setting": "308.15 K, w1 = 0.3", "value": "842.6 ± 0.8", "unit": "kg/m3"}, {"measurement": "mass density", "setting": "308.15 K, w1 = 0.4", "value": "865.5 ± 0.7", "unit": "kg/m3"}, {"measurement": "viscosity", "setting": "313.15 K, w1 = 0.1", "value": "0.432 ± 0.007", "unit": "mPa·s"}, {"measurement": "viscosity", "setting": "313.15 K, w1 = 0.2", "value": "0.448 ± 0.007", "unit": "mPa·s"}, {"measurement": "viscosity", "setting": "313.15 K, w1 = 0.3", "value": "0.452 ± 0.007", "unit": "mPa·s"}, {"measurement": "viscosity", "setting": "313.15 K, w1 = 0.4", "value": "0.467 ± 0.007", "unit": "mPa·s"}, {"measurement": "mass density", "setting": "313.15 K, w1 = 0.1", "value": "796.9 ± 0.8", "unit": "kg/m3"}, {"measurement": "mass density", "setting": "313.15 K, w1 = 0.2", "value": "818.4 ± 0.8", "unit": "kg/m3"}, {"measurement": "mass density", "setting": "313.15 K, w1 = 0.3", "value": "838 ± 0.8", "unit": "kg/m3"}, {"measurement": "mass density", "setting": "313.15 K, w1 = 0.4", "value": "860.6 ± 0.7", "unit": "kg/m3"}]}
